Data on 10 compounds can be found in patent US11059778B2, “Cannabinoid receptor CB2 ligand 4-(aminomethyl)-N, N-dialkylanilines” (UNIVERSITY OF PITTSBURGH—OF THE COMMONWEALTH SYSTEM OF …, priority 2015, dated 2021).

As usually defined, the Ki is a measure of affinity in units of concentration, obtained from inhibition or displacement. Low readings indicate tighter binding, high ones weaker binding.

The target in test [1] is T1, CHO cells expressing human CB2 receptors (Homo sapiens, UniProt P34972).
T1 construct: expressed in transfected cells; host or cells: CHO cells, stably transfected
T1 sequence (P34972 whole entry): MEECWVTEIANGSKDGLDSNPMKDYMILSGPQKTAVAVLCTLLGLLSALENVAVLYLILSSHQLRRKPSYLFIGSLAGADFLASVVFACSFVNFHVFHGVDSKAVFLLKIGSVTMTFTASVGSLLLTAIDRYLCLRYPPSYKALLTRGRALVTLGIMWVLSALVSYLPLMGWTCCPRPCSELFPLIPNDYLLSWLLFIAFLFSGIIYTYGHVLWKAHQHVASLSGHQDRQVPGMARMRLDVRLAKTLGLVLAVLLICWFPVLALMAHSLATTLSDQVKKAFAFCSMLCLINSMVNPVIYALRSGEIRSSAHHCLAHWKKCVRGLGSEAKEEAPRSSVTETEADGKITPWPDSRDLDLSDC
Briefly: cell-based LANCE cAMP assay. Particulars: forskolin-stimulated, RO-20-1724 present, FIG. 4. How it is done: FIG. 4 relates to cAMP Assay Results. LANCE signal of CB2 ligands. Stably transfected CHO cells expressing human CB2 receptors were utilized to carry out the LANCE cAMP assay. […] Data is mean±SEM of all experiments of two or more performed in triplicate.
(§1) The antibodies are labeled with Alexa Fluor dye that is sensitive to energy emissions. Briefly, the cell-based LANCE cAMP assays were performed on 384-well ProxiPlates using CHO cells stably expressing the CB2 receptors at density of 2×10^3 cells per well in 5 μL of RPMI-1640 medium (Gibco Laboratories, Grand Island, N.Y.) containing 1% dialyzed FBS, 25 mM HEPES, […], and 200 μg/ml of […]. After incubation overnight, 2.5 μL of cAMP antibody and RO20-1724 (a phosphodiesterase inhibitor) in stimulation buffer (DPBS 1×, containing 0.1% BSA) was added to each well, followed by the addition of 2.5 μL of the compound plus the forskolin complex (an adenyl cyclase activator). After incubation at room temperature for 45 minutes, 10 μL of detection buffer was added into each well. The plate was then incubated at room temperature for 1 hour. The plate was then measured in a Synergy H1 hybrid reader (BioTek) with excitation at 340 nm and emission at 665 nm. The results represent at least two independent experiments each in triplicates. EC50 values were determined by nonlinear regression dose-response curve (GraphPad Prism 5).
as §1, with “Cyclic AMP levels were measured by performing the cell-based LANCE cAMP-384 kit assay (PerkinElmer) as previously described 13-14. The assay is based on the competition between the europium-labeled cAMP tracer complex and sample cAMP for binding sites on cAMP-specific antibodies. The antibodies” for “The antibodies”
The LANCE cAMP assay was carried out to measure the functional activities of our synthesized CB2 selective ligands as previously described 14. Briefly, the assay was performed on 384-well plates using CHO cells stably expressing CB2 receptors in the presence of phosphodiesterase inhibitor, RO-20-1724 and adenyl cyclase activator, forskolin.

Test [2] addresses T2, human CB1 receptors (Homo sapiens, UniProt P21554).
T2 construct: expressed in transfected cells
Kind of test: [3H]CP-55,940 radioligand competition binding assay, CB1. Conditions: CHO cell membranes, [3H]CP-55,940 displacement. The method, then: (§2) Binding assay. The bioassay is carried out using the Perkin Elmer 96-well Top Counter. This bioassay is also known as a competition binding assay and the biological evaluation is to determine the CB receptor binding affinity (Ki) of the screened ligands by displacing [^3H]-CP-55940 (or other radioligands). The brief procedure is given below.
(§3) Perkin Elmer 96-well TopCounter is used at PMLSC and in our laboratory to determine the CB receptor binding affinity (Ki) of the in-silico screened ligands by displacing [^3H]-CP-55,940 (or other radioligands). In competition binding experiments, the tested compound dilutions are carried out in triplicate in TME buffer (25 mM Tris, 5 mM MgCl2, 1 mM EDTA) containing 0.1% (w/v) fatty acid free bovine serum albumin (BSA), pH 7.4. Various concentrations of the tested compound are added in the same volume to 0.5 nM [^3H]CP-55,940. TME buffer and cell membrane preparations expressing CB receptors (2.5 μg per well) are added to a final volume of 200 μL. For the saturation binding experiments, varying concentrations of [^3H]CP-55,940 (0.05-1.5 nM) with or without 2 μM of unlabeled ligands (CP-55,940 or WIN-55,212-2) are incubated with the receptor membrane preparations to determine Kd and nonspecific binding. After the binding suspensions are incubated at 30° C. for 1 hr, the reaction is terminated by rapid filtration through microfiltration plates coated with 0.5% polyethylenimine (Unifilter GF/B filterplate, PerkinElmer) followed by 5 washes with ice cold TME buffer containing 0.5% BSA on a Packard Filtermate Harvester (PerkinElmer). The plates are then dried overnight and 30 μl MicroScint 0 scintillation cocktail are added to each well of the dried filter plates. Then the bound radioactivity is counted using a Perkin Elmer 96-well TopCounter. The Ki is calculated by using nonlinear regression analysis (Prism 5; GraphPad Software Inc., San Diego, Calif.), with the Kd values for [^3H]CP-55,940 determined from saturation binding experiments. This assay is used for determining binding affinity parameters (Ki) of ligand-receptor interactions for the CB receptor.
(§4) The affinities of the synthesized ligands were determined in radioligand binding studies at human CB1 and CB2 receptors using [3H](—)-cis-3-[2-hydroxy-4-(1,1 dimethylheptyl)phenyl]-trans-4-(3-hydroxypropyl) cyclohexanol (CP55,940) as a CB receptor radioligand. As a source for human CB1 and CB2 receptors, membrane preparations of Chinese hamster ovary (CHO) cells stably expressing the respective receptor subtype were utilized (50 μg of protein/vial). CB2 selective ligand SR144528 (CB2 inverse agonist) and CB1 ligand SR141716 (CB1 inverse agonist) were used as positive controls, respectively, along with the tested compounds in bioassays experiments. Only compounds with high CB2 receptor binding potency was chosen to carry out the CB1 binding assay. CB ligand competition binding assay was carried out as described previously in Gertsch, J., et al., Beta-caryophyllene is a dietary cannabinoid. Proc Natl Acad Sci USA 2008, 105 (26), 9099-104. Briefly, non-radioactive (or cold) ligands (synthesized derivatives and reference ligands) were diluted in a binding buffer (50 mM Tris-HCl (pH 7.4), 5 mM MgC12, 2.5 mM EGTA, and 0.1% (w/v) fatty acid free BSA), supplemented with 10% dimethyl sulfoxide and 0.4% methyl cellulose. Each assay plate well contained a total of 200 μL of reaction mixture composed of 5 μg of CB1 (or 2.5 μg CB2) membrane protein, labeled [3H]-CP-55,940 ligand at a final concentration of 2.5 nM, and the unlabeled ligand at its varying dilutions as stated above. Plates were incubated at 30° C. for 1 hour with gentle shaking.
(§5) The reaction was terminated by rapid filtration through Unifilter GF/B filter plates using a Unifilter Cell Harvester (PerkinElmer). After the plate was allowed to dry overnight, 30 μL MicroScint-0 cocktail (PerkinElmer) was added to each well, and the radioactivity was counted using a PerkinElmer TopCounter. […]

The target of test [3] is T3, human CB2 receptors (Homo sapiens, UniProt P34972).
T3 construct: expressed in transfected cells
T3 sequence (P34972 whole entry): as above
Kind of test: [3H]CP-55,940 radioligand competition binding assay, CB2. Particulars: for Ki: CHO cell membranes, [3H]CP-55,940 displacement. How it is done:
as §2, §3, §4, §5
For orientation: Loss of bound radioactivity is the signal in a displacement assay; it reports binding, not function.

T2 sequence (P21554 whole entry): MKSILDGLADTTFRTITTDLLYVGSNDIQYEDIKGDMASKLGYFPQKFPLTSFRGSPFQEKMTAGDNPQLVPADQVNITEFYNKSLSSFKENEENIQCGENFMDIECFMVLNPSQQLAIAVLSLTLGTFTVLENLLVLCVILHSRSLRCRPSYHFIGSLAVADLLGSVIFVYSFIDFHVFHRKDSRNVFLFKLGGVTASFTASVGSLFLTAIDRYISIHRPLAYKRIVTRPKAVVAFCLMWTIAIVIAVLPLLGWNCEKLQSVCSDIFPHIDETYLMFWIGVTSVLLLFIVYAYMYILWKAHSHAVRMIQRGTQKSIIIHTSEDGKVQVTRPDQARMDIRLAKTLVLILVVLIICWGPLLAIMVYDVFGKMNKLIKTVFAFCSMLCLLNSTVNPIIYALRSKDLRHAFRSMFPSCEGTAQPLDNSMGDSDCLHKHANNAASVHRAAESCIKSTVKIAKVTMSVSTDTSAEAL

Regarding `CCCCCCC(C)(C)c1ccc([C@@H]2C[C@H](O)CC[C@H]2CCCO)c(O)c1` [CP55940, (—)-cis-3-[2-hydroxy-4-(1,1 dimethylheptyl)phenyl]-trans-4-(3-hydroxypropyl) cyclohexanol, reference compound], in test [1], the “CB2 functional activity (LANCE cAMP signal)” value was “inhibit cAMP production”.

In the case of `CCN(CC)c1ccc(CN(Cc2cccnc2)S(=O)(=O)c2ccc(-c3ccccc3)cc2)cc1` [Compound 25, N-(4-(diethylamino)benzyl)-N-(pyridin-3-ylmethyl)-[1,1′-biphenyl]-4-sulfonamide], the inhibition constant (Ki) in test [2] is > 20000 nM. In test [3], the “SI: selectivity index for CB2, calculated as Ki(CB1)/Ki(CB2) ratio” value is 21 and affinity was put at a Ki of 946 nM.

Take `CCN(CC)c1ccc(CN(Cc2ccc3c(c2)OCO3)S(=O)(=O)/C=C/c2ccccc2)cc1` [Compound 29, (E)-N-(benzo[d][1,3]dioxol-5-ylmethyl)-N-(4-(diethylamino)benzyl)-2-phenylethene-1-sulfonamide]: the affinity in test [2] corresponds to a Ki of 1160 nM. In test [3], the “SI: selectivity index for CB2, calculated as Ki(CB1)/Ki(CB2) ratio” value was 3 and the Ki amounted to 381 nM.

For the compound `CCN(CC)c1ccc(CN(Cc2ccc3c(c2)OCO3)S(=O)(=O)c2ccc(C=O)cc2)cc1` [Compound 30, N-(benzo[d][1,3]dioxol-5-ylmethyl)-N-(4-(diethylamino)benzyl)-4-formylbenzenesulfonamide], in test [2], the Ki was determined as 2740 nM. For the same compound, in test [3], the “SI: selectivity index for CB2, calculated as Ki(CB1)/Ki(CB2) ratio” value is given as 1 and affinity was put at a Ki of 1870 nM.

With `CCN(CC)c1ccc(CN(Cc2ccc3c(c2)OCO3)C(=O)c2cccs2)cc1` [Compound 32, N-(benzo[d][1,3]dioxol-5-ylmethyl)-N-(4-(diethylamino)benzyl)thiophene-2-carboxamide], in test [2], the Ki is 727 nM. In test [3], the “SI: selectivity index for CB2, calculated as Ki(CB1)/Ki(CB2) ratio” value is given as 2 and the Ki stood at 574 nM.

`CCCCCN(Cc1ccc(N(CC)CC)cc1)S(=O)(=O)/C=C/c1ccccc1` [Compound 37, (E)-N-(4-(diethylamino)benzyl)-N-pentyl-2-phenylethene-1-sulfonamide]: the inhibitory constant (Ki) in test [2] was determined as 5240 nM. For the same compound, in test [3], the “SI: selectivity index for CB2, calculated as Ki(CB1)/Ki(CB2) ratio” value is on record as 10 and the inhibitory constant (Ki) was 515 nM.

`CCCCCN(Cc1ccc(N(CC)CC)cc1)S(=O)(=O)c1ccc(C=O)cc1` [Compound 38, N-(4-(diethylamino)benzyl)-4-formyl-N-pentylbenzenesulfonamide] displayed a Ki in test [2] of 1790 nM. Besides, in test [3], the “SI: selectivity index for CB2, calculated as Ki(CB1)/Ki(CB2) ratio” value is recorded as 3 and the inhibition constant Ki came out at 657 nM.

Regarding `CCCCCN(Cc1ccc(N(CC)CC)cc1)C(=O)c1cnc2ccccc2n1` [Compound 39, N-(4-(diethylamino)benzyl)-N-pentylquinoxaline-2-carboxamide], the affinity in test [2] corresponds to a Ki of 1860 nM. Also, in test [3], the “SI: selectivity index for CB2, calculated as Ki(CB1)/Ki(CB2) ratio” value is 1 and the Ki stood at 1850 nM.

In the case of `CCCCCN(Cc1ccc(N(CC)CC)cc1)C(=O)c1cccs1` [Compound 40, N-(4-(diethylamino)benzyl)-N-pentylthiophene-2-carboxamide], the figures for the Ki in test [2] and in test [3] were 2440 nM and 362 nM, respectively. Besides, the “SI: selectivity index for CB2, calculated as Ki(CB1)/Ki(CB2) ratio” value in test [3] is on record as 7.

For the compound SR-144,528 [reference compound], the “CB2 functional activity (LANCE cAMP signal)” value in test [1] is given as “inverse agonists”.
